Laboratory results as given in a melting point compilation (Tetko et al.; mined from patent text by program, amines drawn as free bases though some values may be those of a salt).

Row | SMILES | melting point [°C]
1 | Fc1ccccc1Cn1nc(-c2nc(C(F)(F)F)cc(C(F)(F)F)n2)c2cccnc21 | 109
2 | O=C(Nc1ccccc1)C1=NOCCS1(=O)=O | 206 to 207
3 | O=C1Nc2cccnc2N(C(=O)N2CCCC(CCCCN3CCCC3)C2)c2ccccc21 (centres undefined) | 153 to 156
4 | CC12CCC(=O)C=C1CCC1C2CCC2(C)C(C(=O)C3CCCCC3)CCC12 (centres undefined) | 159 to 161
5 | CCCC=Cc1ncn2c1CN(C)C(=O)c1cc(F)ccc1-2 | 150 to 151
6 | CC1(C)NC(=O)N(c2cc(Cl)c(F)c(Cl)c2)C1=O | 175 to 176
7 | CCc1c(NC(=O)c2cc(S(C)(=O)=O)ccc2OCC(C)C)c(C(N)=O)nn1Cc1nccn1C | 201 to 206
8 | CCCn1nnn(-c2ccc(N3CCN(c4ccc(OC)cc4)CC3)cc2)c1=O | 190
9 | COCCOC(=O)NC(=O)CCl | 97 to 99
10 | Cc1ccccc1-c1c(NC(=O)Nc2c(C(C)C)cccc2C(C)C)oc2ccc(Cl)cc12 | 240
11 | C#CCCCN=C(NC#N)NCCSCc1[nH]cnc1C | 99 to 103
12 | NS(=O)(=O)c1sccc1C(F)=C(F)C(F)(F)F | 108 to 111
13 | CC(=O)NC[C@H]1CN(c2cc(F)c(N3CCC(n4nnc(N5CCNCC5)n4)CC3)c(F)c2)C(=O)O1 | 180 to 185
14 | CCC1CC2C3CCC4=CC(=O)CCC4C3CCC2(C)C1OC(=O)CO (centres undefined) | 156 to 157
15 | CCCCCCCCN(CCCCCCCC)c1nc(Nc2ccc3nc(S)sc3c2)nc(N(CCCCCCCC)CCCCCCCC)n1 | 81 to 83
16 | O=C(/C=C/c1ccccc1Cl)/C=C/c1ccccc1Cl | 116 to 118
17 | Cc1c(C=NO)c2ccccc2n1-c1ccc(O)cc1 | 171 to 173
18 | Cc1cc(Br)cnc1CCCCNc1ncc(Cc2cccnc2)cc1N | 85 to 87
19 | C[C@@H]1Cc2ccsc2[C@H](c2cccs2)N1CCNS(=O)(=O)c1ccc(N)cc1 (relative stereo) | 156 to 161
20 | C=C1SC(=S)N(c2ccc3cc(-c4ccc(OC)c(C(C)(C)C)c4)ccc3c2)C1=O | 281 to 284
21 | CC(=O)NC[C@H]1CN(c2ccc(C(=O)c3cnc4c5ccccc5ccn34)cc2)C(=O)O1 | 239 to 240
22 | COc1cc(Nc2cc(-c3ccc(F)cc3)nc3ccccc23)ccc1Cl | 274 to 276
23 | O=C1c2ccccc2C(=O)c2c(NCC(O)CCl)ccc(NCC(O)CCl)c21 (centres undefined) | 167 to 169
24 | CCOC(=O)C1C(=O)c2cc(F)ccc2N=C1c1ccccc1 (centres undefined) | 277 to 279
25 | O=[N+]([O-])c1ccc(Cl)c(C2SCCS2)c1 | 130 to 131

Row | SMILES | melting point [°C]
26 | COC(=O)c1cc(-c2ccc(OCc3ccccc3)cc2)n(-c2ccc(S(N)(=O)=O)cc2)n1 | 196 to 198
27 | CC1(C)C=CN(C(=O)Nc2ccccc2)C=C1 | 128 to 130
28 | Cn1c2ccc(F)cc2c(=O)n2nc(C(=O)O)cc12 | 295
29 | Cc1ccccc1Sc1cccc2c1OC(=O)C2 | 108 to 109
30 | CC1(C)C=C(N2Cc3ccccc3C2=O)c2cc(S(=O)(=O)C(F)(F)F)ccc2O1 | 110 to 115
31 | Cc1ccc(-c2ccc(S(C)(=O)=O)c(F)c2)n1-c1ccc(-c2cscn2)cc1 | 215
32 | O=c1[nH]c2cc(-c3ncc[nH]3)c([N+](=O)[O-])cc2[nH]c1=O | > 300
33 | Cc1cc(F)cc([N+](=O)[O-])c1N | 111 to 113
34 | O=C(Nc1ccc(CNc2nc(N3CCC3)nc3ccccc23)cc1)c1ccc(F)cc1 | 249
35 | Cc1cc(=O)[nH]nc1-c1ccccc1 | 125 to 126
36 | CSc1onc(-c2ccccc2)c1-c1ccccc1 | 83 to 86
37 | Cc1[nH]c2ccc(F)cc2c1C(=O)Nc1ccc(Oc2ccccc2)c(C#N)c1 | 237
38 | Cc1cc(-c2cccs2)nc(Nc2ccc(C(C)C)cc2Br)n1 | 98 to 101
39 | CCCCCCOC1CC(C)(C)N(c2nc(N(CCCC)C3CC(C)(C)NC(C)(C)C3)nc(N(CCCC)C3CC(C)(C)NC(C)(C)C3)n2)C(C)(C)C1 | 135 to 137
40 | O=C(Nc1ccc(F)c(NS(=O)(=O)c2cccs2)c1)c1ccc(F)c(F)c1 | 202 to 203
41 | O=C(NC1CCN(c2ccccc2)C1)c1ccc([N+](=O)[O-])cc1 (centres undefined) | 153 to 155
42 | CC1(C)CCC(C)(C)c2cc(C(=O)CSc3ccc(C(=O)O)cc3)ccc21 | 175 to 179
43 | CS(=O)(=O)c1cc(CBr)ccc1Br | 120 to 124
44 | CC(Cl)(Cl)CC(O)(Cn1cncn1)c1ccc(Cl)cc1 (centres undefined) | 106
45 | CC(C(=O)O)c1ccc2c(c1)C(=O)Cc1cc(O)ccc1S2 (centres undefined) | 216 to 217
46 | ON=C(c1ccc(Cl)cc1)c1cccc2nc(N[C@@H]3CCc4ccccc43)ccc12 | 194
47 | COc1cc(OCn2nnc3ccccc32)c(C=O)cc1-c1cccs1 | 137 to 138
48 | CCN1CCc2ccc(OC)c(Nc3ncc(Cl)c(Nc4ccc(N5CCOCC5)cc4OC)n3)c2CC1=O | 87 to 103
49 | O=C1N(c2ccc(C(F)(F)F)cc2)CN2C(c3ccc(Cl)cc3)C(c3ccccc3)CN12 (centres undefined) | 184 to 187
